# Literature values as cited in publication PMC3531425, “Low Resolution Solution Structure of HAMLET and the Importance of Its Alpha-Domains in Tumoricidal Activity” (PLoS ONE, 2012).
# Test system: tumor cells
# Details: molecular range where the complex kills tumor cells; ref [10], [17]; cited from earlier work
# Excerpt: The structural basis for HAMLET's tumoricidal activity is not fully understood. […] Since native α-lactalbumin lacks these activities, we hypothesized that the partially unfolded and ... || Recent Far-UV CD spectroscopy studies have shown that the secondary structural features in HAMLET are similar to those in α-lactalbumin [10], which include an alpha1 and alpha2 domain, consisting of the amino acid residues K1-Q39 and L81-L123, respectively, as well as the beta domain, formed by the residues A40-F80 (Fig. 3A–B). […] As described above the alpha2 domain forms a part of the globular domain (residues L81 to W104) as well as the C-terminal tail with t ...
compound,measurement,value
CCCCCCCC/C=C\CCCCCCCC(=O)O [oleic acid],Toxicity of oleic acid alone,not toxic
